Test results published in US12313632B2, “Tepoxalin targeting of ABCB1 overexpressing cancers” (THE BROAD INSTITUTE, INC., priority 2018, dated 2025).
Read-outs that look alike come from different tables or passages of the source.

Experiments:
Kuramochi-ABCB1 cells = experiment: Killing of native Kuramochi cells versus Kuramochi cells overexpressing ABCB1 (Kuramochi-ABCB1); format: cell-based, human; conditions: for Change of compound-mediated killing with overexpressed ABCB1: Kuramochi-ABCB1 versus native Kuramochi cells
Protocol: Cell viability was assayed using a modified manufacturer's protocol for CellTiter-Glo® (Promega #G7573). […] The following day different concentrations of compounds at various doses were printed in triplicate in a random well format using the Tecan D300e Digital Dispenser. […] Biological replicates were averaged and normalized to vehicle control. Dose curves were generated using Graphpad Prism.
Next, the consequence of ectopic ABCB1 overexpression in cells resistant to tepoxalin was evaluated.

LS1034 cells [1] = experiment: CellTiter-Glo cellular viability assay, killing of LS1034 cells; format: cell-based, human; conditions: for IC50: Homo sapiens, LS-1034
Protocol: (§1) Cell viability was assayed using a modified manufacturer's protocol for CellTiter-Glo® (Promega #G7573). Cells were seeded at a density of 2000 cells per well in a 96 well black, clear bottom plate (Corning #89091-012) in 100 uL total media per well. The following day different concentrations of compounds at various doses were printed in triplicate in a random well format using the Tecan D300e Digital Dispenser. After 120H, 60 μL of a 1:3 solution of CellTiterGlo reagent in 1×PBS (Corning #01018002) was added per well and allowed to incubate at RT for 10 mins. Luminescence was measured with an integration time of 0.1 s using Envision Microplates Reader (PERKIN ELMER #2105-0010). Biological replicates were averaged and normalized to vehicle control. Dose curves were generated using Graphpad Prism.

REC1 cells = experiment: Expanded cell line viability comparison, killing of REC1 cells; format: cell-based, human; conditions: REC1 versus LS1034
Protocol: as §1

[2] = test system: barcode-tagged neoplastic cell line populations sorted by ABCB1 expression; experiment: PRISM multiplexed cellular viability screen, cell killing plotted against ABCB1 expression; conditions: for Phenocopy of tepoxalin activity in PRISM: tested at the same dose
Protocol: PRISM cell line barcoding, pooling, and screening was performed as previously described with several improvements to the original method (5). First, the lentiviral vector was modified to encode the unique barcode identifier at the end of the puromycin resistance gene. This enables barcodes to be detected using a variant of the mRNA capture and Luminex detection method developed for the L1000 gene expression assay (6). Second, a set of ten inert barcodes were spiked-in to each well of each plate after cell lysis to control for variation in PCR amplification as detailed below.
Cell viability was calculated as the ratio of nMFI to the median of the nMFI from the DMSO-treated negative controls for each cell line on each plate. Batch effects produced from variable detection and assay conditions were then removed using ComBat (8). The final viability values were calculated as the median of the batch-corrected cell viabilities from biological replicates for each cell line, compound and dose.
Measures of dose response were obtained by fitting 3-parameter logistic curves to viability values for each compound and cell line using the R package ‘drc’. Following the practice of Smirnov and Safikhani (9), viability was truncated at 1.0 and fit as a function of drug concentration according to:
High-throughput “next gen” sequencing performed upon arrayed cell populations allowed for well-by-well tracking of cell viability over time, in the presence and absence of library compounds, via barcode enumeration and deconvolution of treated and control cell line populations. Using this approach, cell viability dose-response curves were generated for each compound of the drug repurposing library, across all targeted cell lines present in the barcode-tagged neoplastic cell line “PRISM” populations.
By sorting the “PRISM” population cell lines by their respective relative levels of ABCB1 expression (as assessed by RNAseq), the cell killing profile of each drug repurposing library compound tested could be plotted against relative levels of ABCB1 expression, thereby obtaining a cell killing profile that served as a proxy for dose-response of the library compound across progressively increasing levels of ABCB1 expression.

MDR1 [3] = molecular target: T1, MDR1 (Homo sapiens, UniProt P08183); experiment: cell-based
T1 sequence (P08183 whole entry): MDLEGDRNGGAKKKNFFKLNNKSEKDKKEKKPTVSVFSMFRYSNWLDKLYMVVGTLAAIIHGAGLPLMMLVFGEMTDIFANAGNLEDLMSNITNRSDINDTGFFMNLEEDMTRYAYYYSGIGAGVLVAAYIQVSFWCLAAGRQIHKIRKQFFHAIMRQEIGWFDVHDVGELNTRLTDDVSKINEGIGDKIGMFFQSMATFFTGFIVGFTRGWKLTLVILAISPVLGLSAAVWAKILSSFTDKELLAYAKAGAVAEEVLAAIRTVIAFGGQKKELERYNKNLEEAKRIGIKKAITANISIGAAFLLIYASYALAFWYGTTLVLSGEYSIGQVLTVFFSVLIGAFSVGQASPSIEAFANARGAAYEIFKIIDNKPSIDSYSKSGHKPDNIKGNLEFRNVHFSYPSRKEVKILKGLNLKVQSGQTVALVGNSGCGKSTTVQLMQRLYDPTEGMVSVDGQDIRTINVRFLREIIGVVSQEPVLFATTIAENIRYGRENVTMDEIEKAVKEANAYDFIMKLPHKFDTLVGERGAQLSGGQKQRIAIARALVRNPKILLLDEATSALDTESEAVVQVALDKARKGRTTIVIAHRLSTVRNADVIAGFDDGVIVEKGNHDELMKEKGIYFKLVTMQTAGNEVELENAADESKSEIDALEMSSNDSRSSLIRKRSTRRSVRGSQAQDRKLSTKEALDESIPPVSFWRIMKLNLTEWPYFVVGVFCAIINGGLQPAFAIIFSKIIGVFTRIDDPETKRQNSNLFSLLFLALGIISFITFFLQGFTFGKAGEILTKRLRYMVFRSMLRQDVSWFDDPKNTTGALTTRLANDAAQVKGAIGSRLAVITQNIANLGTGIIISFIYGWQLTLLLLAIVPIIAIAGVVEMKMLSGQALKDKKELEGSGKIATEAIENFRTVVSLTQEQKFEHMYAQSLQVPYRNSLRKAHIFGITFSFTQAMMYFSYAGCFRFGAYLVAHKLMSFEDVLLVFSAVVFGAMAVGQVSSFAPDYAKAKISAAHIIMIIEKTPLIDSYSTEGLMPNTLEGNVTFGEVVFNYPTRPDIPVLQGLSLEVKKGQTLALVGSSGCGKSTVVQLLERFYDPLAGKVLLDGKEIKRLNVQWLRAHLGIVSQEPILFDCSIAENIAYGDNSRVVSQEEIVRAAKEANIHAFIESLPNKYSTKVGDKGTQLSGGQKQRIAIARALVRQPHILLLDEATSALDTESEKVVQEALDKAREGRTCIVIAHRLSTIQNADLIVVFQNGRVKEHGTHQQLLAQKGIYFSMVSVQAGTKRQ

[4] = rat model, compared with naproxen; cited from earlier work
LS1034 cells [5] = test system: LS1034 cells
Protocol: (§2) Compound was incubated in naïve cell media (no cell control, or NCC) or in the presence of cells at 1 million cells/mL. The incubation was carried out in a 37° C. with 5% CO2 cell incubator with gentle plate shaking for 3 hours. Following the incubation, the NCC samples were placed on the bench until final analysis. Cell samples were centrifuged at 500×g for 5 minutes. The supernatant was removed, and the cells were washed twice with cold PBS. Cells were again centrifuged at 500×g for 5 minutes, the supernatant was removed/discarded, and cells were resuspended in 130 pL water (Honeywell, catalog #33015-1L). The entire volume was then transferred into a Covaris microTUBE plate (Covaris, catalog #220078) and sonicated on a Covaris LE220 focused-ultrasonicator. Samples were transferred to a 96wp and centrifuged at 3000×g for 15 min at 20° C. The supernatant was transferred to a new 96wp. For both the NCC and cell samples, 5 pL was transferred to a 96wp. To each sample was added 45 pL cell media, 50 pL water, and 50 pL acetonitrile containing internal standard. […]
(§3) Samples were analyzed on a UPLC-MS/MS system consisting of a Waters Acquity I-Class FTN and AB Sciex 4500 Triple Quad mass spectrometer with compounds being detected by positive mode MRM detection. […] Sample concentrations were determined using a standard curve and dilution quality control samples prepared in a surrogate matrix. […]

MDR1 [6] = molecular target: T1, MDR1; experiment: cell-based; remark: listed apart in the source
[7] = test system: LS1034 cells administered sg ABCB1-2; experiment: Viability of LS1034 cells given control sgRNA (sg GFP) or ABCB1 knockdown sgRNA (sg ABCB1-2); format: cell-based, human; conditions: sg ABCB1-2 compared to control sgRNA sg GFP
Protocol: A mixture of 3E6 cells, virus, and media with 4 μg/mL polybrene (Millipore) at a total volume of 2 mL was plated per well of a 12 well plate. Cells were centrifuged at 2000 RPM for 2 hours at 30° C. After removal from incubator, 2 mL of fresh media was added to each well and cells were allowed to incubate at 37° C. overnight. The following day cells were selected for with puromycin for 3-10 days, or until the non-infected control cell were completely non-viable.
as §1, with “Prism. […]” for “Prism.”

LS1034 cells [8] = experiment: Compound cell permeability assay (LC-MS); conditions: 3 hour incubation, 20 μM, with or without ABCB1 knockout or elacridar
Protocol: as §2, §3

MDR1 [9] = molecular target: T1, MDR1; experiment: P-Glycoprotein transporter cell based antagonism assay (calcein AM assay); conditions: read-out: IC50 in calcein AM assay; relies upon cell-permeability of compounds
[10] = published pharmacokinetic studies; cited from earlier work
cyclooygenase = conditions: in vitro; cited from earlier work
[11] = read-out: IC50 value (absolute) in killing LS1034 cells
[12] = PRISM population, ABCB1 expression by RNAseq

CC(=O)O[C@H]1C(=O)[C@@]2(C)[C@H]([C@H](OC(=O)c3ccccc3)[C@]3(O)C[C@H](OC(=O)[C@H](O)[C@@H](NC(=O)c4ccccc4)c4ccccc4)C(C)=C1C3(C)C)[C@]1(OC(C)=O)CO[C@@H]1C[C@@H]2O [paclitaxel, Paclitaxel]
Change of compound-mediated killing with overexpressed ABCB1 (Kuramochi-ABCB1 cells; 144 hours): dampened | IC50 (LS1034 cells [1]; read-out: IC50 in killing LS1034 cells): 0.165 µM | Killing of REC1 cells compared with LS1034 cells (IC50 comparison) (REC1 cells): more robust killing of REC1 cells than LS1034 cells

COc1cc2c(cc1OC)CN(CCc1ccc(NC(=O)c3cccc4c(=O)c5cccc(OC)c5[nH]c34)cc1)CC2 [elacridar]
Cell killing by the compound alone in native and ABCB1-overexpressing Kuramochi cells (Kuramochi-ABCB1 cells; 144 hours): only modest cell killing | Phenocopy of tepoxalin activity in PRISM [2]: did not phenocopy tepoxalin | IC50 (LS1034 cells [1]; [11]): 1.9 µM | Killing of REC1 cells compared with LS1034 cells (IC50 comparison) (REC1 cells): comparable IC50 values for REC1 killing and LS1034 killing

COc1cccc2c1C(=O)c1c(O)c3c(c(O)c1C2=O)C[C@@](O)(C(=O)CO)C[C@@H]3O[C@H]1C[C@H](N)[C@@H](O)[C@H](C)O1 [epirubicin, Epirubicin]
Cell killing profile against relative levels of ABCB1 expression [2, 12]: robust killing of cells that expressed low levels of ABCB1

COc1cccc2c1C(=O)c1c(O)c3c(c(O)c1C2=O)C[C@@](O)(C(C)=O)C[C@@H]3O[C@H]1C[C@H](N)[C@H](O)[C@H](C)O1 [daunorubicin, Daunorubicin]
Cell killing profile against relative levels of ABCB1 expression [2]: robust killing of cells that expressed low levels of ABCB1

COc1cc2c(cc1OC)CN(CCc1ccc(NC(=O)c3cc(OC)c(OC)cc3NC(=O)c3cnc4ccccc4c3)cc1)CC2 [tariquidar]
Phenocopy of tepoxalin activity in PRISM [2]: did not phenocopy tepoxalin | IC50 (LS1034 cells [1]; [11]): > 10 µM

O=C(C(c1ccccc1)c1ccccc1)N1CCN(CC(O)COc2cccc3ncccc23)CC1 (stereo not drawn) [dofequidar]
IC50 (LS1034 cells [1]; [11]): > 10 µM

COc1ccc(-n2nc(CCC(=O)N(C)O)cc2-c2ccc(Cl)cc2)cc1 [tepoxalin]
IC50 (MDR1 [3]): 32 µM | Gastric ulcers at an effective dose [4]: fewer gastric ulcers in a rat model than naproxen | Change of compound-mediated killing with overexpressed ABCB1 (Kuramochi-ABCB1 cells; 144 hours): enhanced | Dose-response cell killing curves in combination with 2 μM elacridar, across ABCB1 expression/overexpression (Kuramochi-ABCB1 cells; combination with 2 μM elacridar, Kuramochi versus Kuramochi-ABCB1, 144 hours): impervious (did not shift) | Cell permeability (LS1034 cells [5]): readily cell permeable | Cell killing profile against relative levels of ABCB1 expression [2, 12]: progressively enhanced killing of cell lines in positive correlation with increasing levels of ABCB1 | IC50 (LS1034 cells [1]; [11]): 7.8 µM | Effect of elacridar co-treatment on killing of LS1034 cells (LS1034 cells [1]; LS1034, 120H, co-treatment with the MDR1 inhibitor elacridar across dose ranges): rescued | IC50 (MDR1 [6]): 12 µM | Effect of sg ABCB1-2 on compound-mediated killing of LS1034 cells [7]: effectively blocked | Killing of REC1 cells compared with LS1034 cells (IC50 comparison) (REC1 cells): more robust killing of REC1 cells than LS1034 cells

COc1cccc2c1C(=O)c1c(O)c3c(c(O)c1C2=O)C[C@@](O)(C(=O)CO)C[C@@H]3O[C@H]1C[C@H](N)[C@H](O)[C@H](C)O1 [doxorubicin, Doxorubicin]
Change of compound-mediated killing with overexpressed ABCB1 (Kuramochi-ABCB1 cells; 144 hours): dampened | Cell killing profile against relative levels of ABCB1 expression [2, 12]: robust killing of cells that expressed low levels of ABCB1

C/C(=C\c1csc(C)n1)[C@@H]1C[C@@H]2O[C@]2(C)CCC[C@H](C)[C@H](O)[C@@H](C)C(=O)C(C)(C)[C@@H](O)CC(=O)N1 [ixabepilone, Ixabepilone]
Cell killing profile against relative levels of ABCB1 expression [2]: robust killing of cells that expressed low levels of ABCB1

CC[C@]1(O)C[C@@H]2C[N@@](CCc3c([nH]c4ccccc34)[C@@](C(=O)OC)(c3cc4c(cc3OC)N(C=O)[C@H]3[C@@](O)(C(=O)OC)[C@H](OC(C)=O)[C@]5(CC)C=CCN6CC[C@]43[C@@H]65)C2)C1 [vincristine, Vincristine]
Cell killing profile against relative levels of ABCB1 expression [2, 12]: robust killing of cells that expressed low levels of ABCB1

O[C@@H](COc1cccc2ncccc12)CN1CCN([C@@H]2c3ccccc3[C@@H]3[C@H](c4ccccc42)C3(F)F)CC1 [zosuquidar]
IC50 (LS1034 cells [1]; [11]): > 10 µM

COc1ccc(-n2nc(CCC(=O)O)cc2-c2ccc(Cl)cc2)cc1 [RWJ20142]
Cell permeability (LS1034 cells [8]): cell impermeability | IC50 (MDR1 [9]): > 100 µM | Maximal plasma concentration relative to parent compound [10]: higher maximal plasma concentration than the parent compound | Viability of treated LS1034 cells (LS1034 cells [1]; LS1034 cells): no decrease in viability | Activity against cyclooxygenase (cyclooygenase): active

CC(=O)[C@]1(O)Cc2c(O)c3c(c(O)c2[C@@H](O[C@H]2C[C@H](N)[C@H](O)[C@H](C)O2)C1)C(=O)c1ccccc1C3=O [idarubicin, Idarubicin]
Cell killing profile against relative levels of ABCB1 expression [2, 12]: robust killing of cells that expressed low levels of ABCB1

Romidepsin
Cell killing profile against relative levels of ABCB1 expression [2]: robust killing of cells that expressed low levels of ABCB1

Vinorelbine
Cell killing profile against relative levels of ABCB1 expression [2, 12]: robust killing of cells that expressed low levels of ABCB1

C/C=C/C[C@@H](C)C(=O)[C@H]1C(=O)N[C@@H](C(C)C)C(=O)N(C)CC(=O)N(C)[C@@H](CC(C)C)C(=O)N[C@@H](C(C)C)C(=O)N(C)[C@@H](CC(C)C)C(=O)N[C@@H](C)C(=O)N[C@H](C)C(=O)N(C)[C@@H](CC(C)C)C(=O)N(C)[C@@H](CC(C)C)C(=O)N(C)[C@@H](C(C)C)C(=O)N1C [valspodar]
IC50 (LS1034 cells [1]; [11]): > 10 µM

CC(C)C[C@H](NC(=O)[C@H](CCc1ccccc1)NC(=O)CN1CCOCC1)C(=O)N[C@@H](Cc1ccccc1)C(=O)N[C@@H](CC(C)C)C(=O)[C@@]1(C)CO1 [carfilzomib, Carfilzomib]
Cell killing profile against relative levels of ABCB1 expression [2, 12]: robust killing of cells that expressed low levels of ABCB1

CC(=O)O[C@@]12CO[C@@H]1C[C@H](O)[C@@]1(C)C(=O)[C@H](O)C3=C(C)[C@@H](OC(=O)[C@H](O)[C@@H](NC(=O)OC(C)(C)C)c4ccccc4)C[C@@](O)([C@@H](OC(=O)c4ccccc4)[C@H]21)C3(C)C [docetaxel, Docetaxel]
Cell killing profile against relative levels of ABCB1 expression [2, 12]: robust killing of cells that expressed low levels of ABCB1
